Drawing on PubChem BioAssay AID179 (DTP/NCI, 2004), this text covers EC50, IC50 and outcome for 74 compounds.

The test system of this test is CEM cells HIV-1 protection, formazan growth assay. Nature of the test: NCI AIDS Antiviral Assay. As to conditions: for IC50: measured here: growth of uninfected CEM cells. In short, it runs like this: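 CEM (human) cells, HIV-1 infected vs uninfected, 5-point dosing, formazan growth read-out. Retest threshold 50% protection.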

Structures are written as SMILES. Calls of active or inactive are those of the source.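 The calls were made as follows: active = compounds giving half or more protection of infected cells from virus-caused growth loss, again on retest; inactive = the rest.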 Where a SMILES comes first, the peptide text is derived from it. Bridges are numbered along the chain shown (N, C = ends). Roman numbers before positions name the chains, in order. The star is where a group is joined. Cbz = O=C(OCc1ccccc1)* Some results are limits rather than exact numbers.

The term EC50 denotes the concentration needed to bring the measured effect to its halfway point. A word on the IC50: it is the point on the concentration scale where inhibition reaches its midpoint. As for `O=C1OC(c2cccs2)Sc2ccccc21` (stereo not drawn), the EC50 was over 200 µM and the 50% inhibitory concentration (IC50) is 195 µM.

As for `c1ccc2c3c(ccc2c1)CSCc1ccc2ccccc2c1-3`, the EC50 is over 200 µM. Regarding `O=C(/C=C/c1ccc([N+](=O)[O-])cc1)c1nc2ccccc2[nH]1`, the EC50 is over 200 µM and the IC50 was 4.37 µM. In the case of `C/C(=C\O[Si](C)(C)C)c1ccccc1`, the EC50 was over 200 µM and the IC50 was over 200 µM. On to `Cn1c(=O)ccc2ccc(N(CCO)CCO)nc21`, for which the EC50 is over 200 µM and the half-inhibitory concentration (IC50) is over 200 µM. As to `CN(C)/C=N\c1ccnc(=O)[nH]1`, the EC50 was over 1320 µM and the IC50 is over 1320 µM. In the case of `O=C1c2cccc3cc([N+](=O)[O-])cc(c23)C(=O)N1CCc1ccccn1`, the EC50 is over 200 µM and the IC50 turned out to be 4.37 µM.

As for `Cn1c(=O)c(C#N)c2n(c1=S)CCCCCCC2`, the EC50 was over 200 µM and the IC50 was 112 µM.

With `CCN(CC)c1c(C)nnc2c(-c3ccccc3)cnn12`, the EC50 is over 18.6 µM and the concentration for half-maximal inhibition (IC50) is over 18.6 µM. As to `Clc1ccc(/C=N\N2CCCCCC2)c(Cl)c1`, the outcome was inactive.

As for `N#CC(Cc1ccccc1)C(N)=O` (stereo not drawn), the EC50 was over 200 µM and the half-inhibitory concentration (IC50) is over 200 µM. As to `COc1ccc2c(c1)C(=O)C13CC(C(=O)O)C(OC(C)=O)(CCC21)C3` (stereo not drawn), the EC50 was over 89.1 µM and the IC50 is over 89.1 µM. Consider `CC(C)C(NC(=O)C(CSSCC(NC(=O)OCc1ccccc1)C(=O)NC(C(=O)O)C(C)C)NC(=O)OCc1ccccc1)C(=O)O` (stereo not drawn) (I: Cbz-Cys-Val-OH / II: Cbz-Cys-Val-OH; disulfide I:1-II:1; configuration not given here), for which the EC50 was over 200 µM and the IC50 is 112 µM. The like results for `Cc1cc(C)nc(NC(=O)Nc2cccc(C(F)(F)F)c2)c1` were, in that order, over 200 µM and over 200 µM. Turning to `CC(=O)OCC(OC(C)=O)C(OC(C)=O)C(/C=N\Nc1nc2ccccc2c(=O)[nH]1)OC(C)=O` (stereo not drawn), the EC50 was over 200 µM and the half-inhibitory concentration (IC50) was over 200 µM. As for `COC(=O)C1=C(C(=O)OC)C2=S(SC3=C2CCCC3)S1` (stereo not drawn), the outcome was inactive.

For the compound `O=C(Cc1nccc2c1[nH]c1ccccc12)OC1C#CCSCC#C/C=C\1` (stereo not drawn), the EC50 was over 200 µM and the concentration for half-maximal inhibition (IC50) is 28.2 µM.

In the case of `COC(=O)CCN1c2ccccc2Sc2ccccc21`, the EC50 was over 66.1 µM and the 50% inhibitory concentration (IC50) was over 66.1 µM. `O=c1ccc(=O)c2c1c1[nH]c3ccccc3c1c1c(=O)c3ccccc3c(=O)c21`: the EC50 is over 200 µM and the IC50 came out at 18.6 µM. For `CCOC(=O)C1=C(C)N(C2OC(COC(=O)c3ccccc3)C(OC(=O)c3ccccc3)C2OC(=O)c2ccccc2)C(=S)NC1c1ccccc1` (stereo not drawn), the EC50 is over 50.1 µM and the half-inhibitory concentration (IC50) was over 50.1 µM. `C[C@]12CCC3[C@@H](CC[C@@H]4c5nonc5CC[C@]34C)C1CCC(=O)N2` (stereo partly drawn): the EC50 is over 97.7 µM and the half-maximal inhibitory concentration (IC50) is over 97.7 µM. On to `CC(N)(CC(O)(C(F)(F)Cl)C(F)(F)Cl)C(=O)O` (stereo not drawn), for which the EC50 is over 200 µM and the IC50 was over 200 µM. As to `CCOC(=O)/C(=C\c1cccc(OC)c1)P(=O)(OCC)OCC`, the EC50 is over 525 µM and the half-inhibitory concentration (IC50) turned out to be 11.5 µM.

Turning to `O=C(N/N=C(\c1ccccc1)c1ccccn1)NC1CCCCC1`, the result was inactive.

Take `CC(C)C(Sc1nc(-c2ccccc2)c(-c2ccccc2)[nH]1)c1n[nH]c(=S)n1-c1ccccc1` (stereo not drawn): the EC50 was over 14.8 µM and the IC50 turned out to be 7.08 µM. Taken in the same sequence, the figures for `CC1C=C(CCCCCCCCCCCC[C@@H](O)[C@@H]2CC[C@@H]([C@@H]3CC[C@@H](C(O)CCCCCCCCCCCCC4=C[C@H](C)OC4=O)O3)O2)C(=O)O1` (stereo partly drawn) were over 200 µM and 0.204 µM. Consider `Cc1ccc(-c2oc3ccccc3c(=O)c2O)cc1`, for which the EC50 was over 200 µM and the IC50 amounted to 53.7 µM. Turning to `O=c1[nH]c(N2CCOCC2)nc2cc3ccccc3cc12`, the EC50 is over 155 µM and the IC50 is over 155 µM. On to `CCc1cccc(C)c1N1C(=O)C(=O)C(c2nc3ccccc3o2)C(=O)C1=O`, for which the EC50 was over 331 µM and the IC50 amounted to 66.1 µM. For `CCSCN(C)c1nc(N(C)C)nc(N(C)C)n1`, the EC50 was over 200 µM and the 50% inhibitory concentration (IC50) stood at 8.51 µM. As for `CCN(CC)CCNC(=O)C1COc2ccc(-c3cc(=O)c4ccccc4o3)cc2O1` (stereo not drawn), the outcome was inactive. For `CCn1c2c(c3ccccc31)[C@@H](c1ccc(Cl)cc1)CC1C(=O)N(c3ccccc3)C(=O)C21` (stereo partly drawn), the EC50 is over 11.5 µM and the half-maximal inhibitory concentration (IC50) is over 11.5 µM. Turning to `COC(=O)Nc1cn2c(n1)SCC2`, the EC50 is over 200 µM and the IC50 is over 200 µM.

Regarding `CSc1nnc(C(C#N)C#N)nn1`, the result was inactive. Turning to `CC(=O)NNc1nc(C)c(C(=O)NNC(=O)C(=O)Nc2cccc(C(C)=O)c2)s1`, the EC50 was over 44.7 µM and the IC50 was over 44.7 µM. For `O=C(O)c1cc(C(=O)O)c(C(=O)O)c(C(=O)O)c1C(=O)O`, the outcome was inactive. For the compound `CN(C)P(CCP(C)C)N(C)C`, the EC50 was over 174 µM and the half-maximal inhibitory concentration (IC50) is over 174 µM. On to `C=CCN(CC=C)C(=O)Nc1ccc(C(=O)N/N=C/c2cccc(OC)c2OC)cc1`, for which the concentration for a half-maximal effect (EC50) was 89.1 µM and the IC50 stood at 170 µM. `CCCCCCOP(=O)(OCCCCCC)C(NC(=O)OCC)(C(F)(F)F)C(F)(F)F`: the EC50 was over 200 µM and the IC50 came to 21.9 µM. Taken in the same sequence, the figures for `N=C1N(c2ccccc2)C(=O)C23CCCC2C13N1CCOCC1` (stereo not drawn) were over 219 µM and over 219 µM. Take `CN1CCCC1=NC#N`: the EC50 was over 200 µM and the IC50 is over 200 µM. In the case of `CN(C)c1ccc(/C=C(\C#N)c2ccc(Cl)cc2Cl)cc1`, the EC50 was over 200 µM and the IC50 was 3.39 µM.

Regarding `CCOC(=O)c1ccc(N=c2sc3ccccc3nc2Nc2ccc(C(=O)OCC)cc2)cc1`, the EC50 is over 200 µM and the IC50 was over 200 µM. Regarding `O=C1COCC(=O)N1`, the EC50 was over 2190 µM and the IC50 was over 2190 µM.

In the case of `CC(=O)NC(CCCCN(Cc1ccccc1)C(=O)N(C)N=O)C(=O)NCc1ccccc1` (stereo not drawn), the EC50 was over 110 µM and the 50% inhibitory concentration (IC50) stood at 93.3 µM. As to `O=C1c2ccccc2-c2nccc3ccnc1c23`, the outcome was inactive. On to `CCOC(=O)N1CCNCCN(C(=O)OCC)CCNCC1`, for which the EC50 is over 200 µM and the half-maximal inhibitory concentration (IC50) was over 200 µM. Turning to `COc1cc(OC)c(/C=C2\N=C(C)N(Nc3nnc(NN4C(=O)/C(=C/c5c(OC)cc(OC)cc5OC)N=C4C)c4ccccc34)C2=O)c(OC)c1`, the outcome was inactive. With `Cc1ccc(-c2cc(-c3ccccc3)c(C#N)c(=O)[nH]2)cc1`, the EC50 is over 66.1 µM and the IC50 was over 66.1 µM. As to `O=C(/C=C/c1ccc(OCCCCCCCCCCOc2ccc(/C=C/C(=O)c3ccc(Cl)cc3)cc2)cc1)c1ccc(Cl)cc1`, the EC50 is over 4.17 µM and the IC50 was over 4.17 µM. On to `Cn1cnc([N+](=O)[O-])c1Sc1ccccn1`, for which the EC50 was over 1050 µM and the concentration for half-maximal inhibition (IC50) amounted to 42.7 µM. Consider `Cc1[nH]c2cc([N+](=O)[O-])ccc2c1[N+](=O)[O-]`, for which the outcome was inactive. Regarding `COc1ccc2c(c1)OC(C)(C)C1c3c(cc(OC)c(O)c3C)OC21` (stereo not drawn), the EC50 is over 200 µM and the half-inhibitory concentration (IC50) was 9.33 µM. As for `O=C1c2ccccc2Sc2ccccc2N1CCCCCN1CCN(c2ccc(F)cc2)CC1`, the EC50 is over 200 µM and the half-inhibitory concentration (IC50) amounted to 8.91 µM.

As to `Cc1ccc2nc(-c3ccc(C(C)(C)C)cc3)oc(=O)c2c1`, the EC50 is over 200 µM and the 50% inhibitory concentration (IC50) is 23.4 µM. For `NCCNCc1c2ccccc2c(CNCCN)c2ccccc12`, the EC50 is over 95.5 µM and the concentration for half-maximal inhibition (IC50) was 7.94 µM. Consider `CCn1c(=O)nc2n(-c3ccccc3)c3ccccc3nc-2c1=O`, for which the result was inactive. For the compound `COc1ccccc1NC(=O)C1=C(C)NC(C)=C(C(=O)Nc2ccccc2OC)C1c1ccccc1Cl`, the result was inactive. Consider `Cc1cn(CC(=O)NCCO)c(=O)[nH]c1=O`, for which the EC50 was over 200 µM and the concentration for half-maximal inhibition (IC50) was over 200 µM. `O=C1c2ccc(O)cc2OC(c2cc(O)c(O)c(O)c2)C1O` (stereo not drawn): the EC50 was over 200 µM and the 50% inhibitory concentration (IC50) was determined as 11.7 µM. Regarding `CC(C)=NNC(=O)CC(=O)N(C(=O)c1ccccc1Cl)c1ccc(C)cc1`, the EC50 is over 468 µM and the IC50 is over 468 µM. Turning to `NC(=O)C(F)C(N)=O`, the EC50 is over 200 µM and the half-maximal inhibitory concentration (IC50) was over 200 µM.

`O=C(N/N=C/c1ccc(O)cc1)c1ccc(OCc2nc3ccccc3[nH]2)cc1`: the EC50 is over 200 µM and the IC50 is over 200 µM. Turning to `CCOP(=O)(OCC)OP(=O)(OCC)OCC`, the EC50 was over 871 µM and the half-maximal inhibitory concentration (IC50) was over 871 µM. On to `Cc1oc2nc(N(C)C)nc(NN)c2c1C`, for which the result was inactive. Regarding `CC(=O)OC1=NN=C2COC(c3ccccc3OC(C)=O)=NN2C1`, the EC50 was over 200 µM and the half-inhibitory concentration (IC50) was found to be 115 µM. Regarding `CCCCCCCCCCN=Cc1c(O)c(O)c(CCC)c2cc(C)c(-c3c(C)cc4c(CCC)c(O)c(O)c(C=NCCCCCCCCCC)c4c3O)c(O)c12`, the result was inactive. With `CC1CN(C=O)CC(C)N1CCN1C(C)CN(C=O)CC1C` (stereo not drawn), the EC50 is over 288 µM and the IC50 is over 288 µM. Turning to `Cc1c(C(=O)O)cc2n(c1=O)Cc1cc3ccccc3nc1-2`, the EC50 was over 10 µM and the IC50 was over 10 µM.

For the compound `C[C@@H]1C[C@@H]2C(=O)N(c3ccccc3)C(=O)[C@@H]2c2[nH]c3ccc(Br)cc3c21`, the result was inactive. On to `C=CC1CN(C(=O)OCC)N(C(=O)OCC)C1CCc1ccccc1` (stereo not drawn), for which the EC50 was over 200 µM and the half-inhibitory concentration (IC50) stood at 72.4 µM.

In the case of `Cc1ccnc(NC(=S)Nc2ccccc2Cl)c1`, the EC50 is over 200 µM and the IC50 is over 200 µM.

Turning to `CC(=O)OCCCOCn1cc(C)c(=O)[nH]c1=O`, the EC50 is over 200 µM and the 50% inhibitory concentration (IC50) is over 200 µM.

In the case of `CCCN1CN(C(C(=O)N[C@@H]2C(=O)N3C(C(=O)O)=C(C)CSC23)c2ccccc2)CSC1=S` (stereo partly drawn), the EC50 was over 355 µM and the 50% inhibitory concentration (IC50) is 204 µM.
